This note sets out measurements from patent US20100143999A1, “PROCESS FOR FERMENTIVE PREPARATION OF ALCOHOLS AND RECOVERY OF PRODUCT” (E.I. DU PONT DE NEMOURS AND COMPANY, priority 2008, published 2010).

Series [1] relates to Saccharomyces cerevisiae (W1362 20A). Put plainly: Glucose Uptake Index of S. cerevisiae culture with 5% (v/v) ionic liquid. Format: cell-based. The following applies: YPD medium, 30° C., 16 hours after addition. The method, then:
After 24 hours the test tube was removed and stored at 4° C.

Series [2] in a line: Extraction of ethanol from an aqueous solution by ionic liquid. Format: physicochemical. The following applies: 3 mL aqueous solution about 31 g/L ethanol, 150 microliters (5 vol %) ionic liquid, overnight equilibration.
Experimental: (§1) Ethanol and isobutanol concentration in the solution was measured using HPLC as described above following thorough mixing and overnight equilibration of the contents of the vial.
Series [3] in a line: Extraction of isobutanol from an aqueous solution by ionic liquid. Format: physicochemical. The following applies: 3 mL aqueous solution about 31 g/L isobutanol, 150 microliters (5 vol %) ionic liquid, overnight equilibration.
Experimental: as §1
Series [4] has as its system Saccharomyces cerevisiae (W1362 20A). Briefly: Scale-up fermentation (25 mL broth) with 5 volume percent ionic liquid, HPLC over five hours. The class given is cell-based. The following applies: five hour time span, FIG. 2. The method, then:
Cultures were again prepared using the same growth conditions as described above except that the total broth volume was 25 mL. The selected ionic liquids were added to a container of each broth in an amount of 5 volume percent. In these experiments, small samples were withdrawn from the broth for HPLC analysis periodically over a five hour time span to get a better idea of the extent of metabolic activity after ionic liquid addition as well as to provide information on glucose consumption and product formation. […] The calculation of GUI was made as described above, and amount of ethanol produced was taken directly from the HPLC data.

`CCCCn1cc[n+](C)c1.F[P-](F)(F)(F)(F)F` [Example 7, 1-butyl-3-methylimidazolium hexafluorophosphate]: the “GUI of Example (Glucose Utilization Index in the presence of ionic liquid phase)” value in series [1] was 48.2.

Consider “1-butyl-3-methylimidazolium 2-(1,2,2,2-tetrafluoroethoxy)-1,1,2,2-tetrafluoroethanesulfonate [Example 13]”, for which the “GUI of Example (Glucose Utilization Index in the presence of ionic liquid phase)” value in series [1] amounted to 42.8.

With “tetradecyl(tri-n-hexyl)phosphonium 1,1,2-trifluoro-2-(perfluoroethoxy)ethanesulfonate [Example 2]”, the “GUI of Example (Glucose Utilization Index in the presence of ionic liquid phase)” value in series [1] is recorded as 78.4.

Regarding `CCCCCCn1cc[n+](C)c1.FC(F)(F)C(F)(F)[P-](F)(F)(F)(C(F)(F)C(F)(F)F)C(F)(F)C(F)(F)F` [Example 1, 1-hexyl-3-methylimidazolium tris(pentafluoroethyl)trifluorophosphate], the “Ethanol (concentration in the solution after extraction)” value in series [2] is 680 mM. In addition, the “Isobutanol (concentration in the solution after extraction)” value (shortened to “Isobutanol”) in series [3] was 404 mM. Moreover, the “GUI of Example (Glucose Utilization Index in the presence of ionic liquid phase)” value in series [1] was 99.7. In series [4], the ethanol production entry is on record as “remained robust” and the glucose uptake result is “remained robust”.

In the case of “1-butyl-3-methylimidazolium 1,1,2,3,3,3-hexafluoropropanesulfonate [Example 11]”, the entries for the “GUI of Example (Glucose Utilization Index in the presence of ionic liquid phase)” value in series [1] and in series [1] (listed as 14) were 30.1 and 31.9, respectively.

As for “1-hexyl-3-methylimidazolium bis(trifluoromethylsulfonyl)imide [Example 9]”, the “Ethanol (concentration in the solution after extraction)” value in series [2] came out at 678 mM. The “Isobutanol” value in series [3] worked out at 388 mM. Further, the “GUI of Example (Glucose Utilization Index in the presence of ionic liquid phase)” value in series [1] is reported as 89.5. Besides, in series [4], the ethanol production entry is “remained robust” and the glucose uptake entry is given as “remained robust”.

For the compound “1-butyl-3-methylimidazolium 1,1,2-trifluoro-2-(trifluoromethoxy)ethanesulfonate [Example 10]”, the “GUI of Example (Glucose Utilization Index in the presence of ionic liquid phase)” value in series [1] came to 37.1.

For the compound “3-methyl-1-propylpyridinium bis(trifluoromethylsulfonyl)imide [Example 12]”, the “GUI of Example (Glucose Utilization Index in the presence of ionic liquid phase)” value in series [1] worked out at 97.1.

With “1-butyl-3-methylimidazolium 1,1,2-trifluoro-2-(perfluoroethoxy)ethanesulfonate [Example 4]”, the “GUI of Example (Glucose Utilization Index in the presence of ionic liquid phase)” value in series [1] stood at 22.0.

Turning to “1-ethyl-3-methylimidazolium bis(trifluoromethylsulfonyl)imide [Example 6]”, the “Ethanol (concentration in the solution after extraction)” value in series [2] was found to be 670 mM. In addition, in series [3], the “Isobutanol” value is 389 mM. The “GUI of Example (Glucose Utilization Index in the presence of ionic liquid phase)” value in series [1] was 76.8. Also, in series [4], the ethanol production entry is recorded as “remained robust” and the glucose uptake result is “remained robust”.

“1-butyl-3-methylpyrrolidinium bis(trifluoromethylsulfonyl)imide [Example 15]”: in series [4], the ethanol production result is reported as “remained robust” and the glucose uptake entry is given as “remained robust”.
